{
  "source": "patent US20240342156A1",
  "about": "“METHODS FOR TREATING PAIN” (Xenon Pharmaceuticals Inc., priority 2019, published 2024)",
  "key": {"[1]": {"system": "rat spinal nerve ligation (SNL)/Chung model of neuropathic pain", "experiment": "Spinal nerve ligation (SNL)/Chung model, tactile allodynia, electronic von Frey test on lesioned paw", "format": "in vivo", "method": "Objective: The efficacy of Compound A was assessed using the rat spinal nerve ligation (SNL)/Chung model of neuropathic pain. The SNL model in rats was developed as described previously (Chung J M, Kim H K, Chung K. “Segmental spinal nerve ligation model of neuropathic pain.” Methods Mol. Med. 99 (2004) 35-45).\nStudy Design. Briefly, on Day 0, von Frey and cold plate tests were used for baseline measurements of tactile and cold allodynia respectively. Post-baseline measurements, rats (171-209 g male Sprague Dawley) were anesthetized and an incision at the L4-S2 level was performed to expose the left L5 nerve. A ligature was tied tightly around the L5 nerve (Chung et al.; R. Dost et al., “The anti-hyperalgesic activity of Retigabine is mediated by KCNQ potassium channel activation.” Naunyn-Schmiedeberg's Arch. Pharmacol. 369 (2004) 382-390; Gordon Blackburn-Munro et al., “The anticonvulsant retigabine attenuates nociceptive behaviors in rat models of persistent and neuropathic pain.” Eur. J Pharmacol. 460 (2003) 109-116; and Wu Y J et al., “Discovery of (S,E)-3-(2-fluorophenyl)-N-(1-(3-(pyridin-3-yloxy)phenyl)ethyl)-acrylamide as a potent and efficacious KCNQ2 (Kv7.2) opener for the treatment of neuropathic pain.” Bioorg Med. Chem. Lett. 23 (2013) 6188-91). The wound was then sutured and the rats were allowed to recover. On Day 13, post-surgery baselines for tactile and cold allodynia were measured to verify neuropathic pain. Animals were assigned to treatment groups based on the post-surgery baseline score.\nDosing: For efficacy testing, Compound A was dosed orally once a day for 5 consecutive days from Day 14-18.\nRats were placed under an inverted acrylic plastic box on a grid floor. The tip of an electronic von Frey probe was then applied with increasing force to the surgery hind paw and the force required to induce paw-withdrawal was automatically recorded. The procedure was carried out 3 times and the mean paw withdrawal force was calculated. The experimenter was double blinded to treatment."}, "[2]": {"system": "CD1 mice (acetic acid induced writhing)", "experiment": "Acetic acid writhing (AAW) mouse model of visceral/inflammatory pain", "format": "in vivo", "conditions": "for EC50: Mus musculus, PK/PD correlation; for number of nociceptive events: CD1 mice, 0.4% acetic acid i.p.", "method": "Objective: The acetic acid test was performed to assess the potential efficacy of Compound A in the acetic acid writhing (AAW) model of inflammatory pain. The AAW test was performed as described previously ([…] Bi et al., “Visceral hyperalgesia induced by forebrain-specific suppression of native Kv7/KCNQ/M-current in mice.” Mol. Pain 2011, 7:84; Gabriela F. Pavao-de-Souza et al., “Acetic acid- and phenyl-p-benzoquinone-induced overt pain-like behavior depends on spinal activation of MAP kinases, PI3K and microglia in mice.” Pharmacol. Biochem. Behav. 101 (2012) 320-328; […] Lett. 413 (2007) 159-162; Mosad A. Ghareeb et al., “HPLC-ESI-MS/MS Profiling of Polyphenolics of a Leaf Extract from Alpinia zerumbet (Zingiberaceae) and Its Anti-Inflammatory, Anti-Nociceptive, and Antipyretic Activities In Vivo.” Molecules 23 (2018) 3238; and […] et al., “Analgesic Activity of Acid-Sensing Ion Channel 3 (ASIC3) Inhibitors: Sea Anemones Peptides Ugr9-1 and APETx2 versus Low Molecular Weight Compounds.” Mar. Drugs 16 (2018), 500). Study Design: Briefly, acetic acid was injected intraperitoneally at 0.4% concentration in 6-7 week old CD1 mice. After the injection of acetic acid, animals were placed in a chamber and their subsequent writhing behavior was video recorded. A writhe is defined as contraction of abdominal muscles accompanied by elongation of the body and extension of hind limbs or rotation of the trunk. […] were counted between 5-15 min after the injection of acetic acid. Selection of Acetic Acid Dose: Based on the concentration response (0.2-0.8%) of acetic acid in CD1 mice, EC75 concentration (0.4%) was selected to produce optimal writhing response. Diclofenac was used as positive control in the acetic acid model."}, "[3]": {"conditions": "Day 18 at 2 h, 8 mg/kg p.o. once daily Day 14-18"}, "[4]": {"conditions": "Day 18 at 2 h, 16 mg/kg p.o. once daily Day 14-18"}, "[5]": {"conditions": "Day 18 at 2 h, 24 mg/kg p.o. once daily Day 14-18"}},
  "note": "Where two headings read alike, the source gives them in different places.",
  "data": [
    {"compound": "Cc1cc(N2CCc3cc(F)ccc3C2)cc(C)c1NC(=O)CC(C)(C)C", "note": "[Compound A, N-[4-(6-fluoro-3,4-dihydro-TH-isoquinolin-2-yl)-2,6-dimethylphenyl]-3,3-dimethylbutanamide]", "values": [
      {"measurement": "effect on the tactile allodynia endpoint", "setting": "[1]; Day 14 and Day 18, compared to morphine", "result": "neither Compound A nor retigabine had much effect"},
      {"measurement": "Force inducing paw-withdrawal (g), Delta from baseline compared with Vehicle (p.o.), Δ", "setting": "[1]; Day 14 at 2 h, 8 mg/kg p.o.", "result": "+6.7 g"},
      {"measurement": "Force inducing paw-withdrawal (g), Delta from baseline, Mean ± s.e.m.", "setting": "[1]; Day 14 at 2 h, 8 mg/kg p.o.", "result": "+7.0 ± 2.5 g"},
      {"measurement": "Force inducing paw-withdrawal (g), Mean ± s.e.m.", "setting": "[1]; Day 14 at 2 h, 8 mg/kg p.o.", "result": "28.5 ± 3.4", "unit": "g"},
      {"measurement": "Force inducing paw-withdrawal (g), Delta from baseline compared with Vehicle (p.o.), Δ", "setting": "[1]; Day 14 at 2 h, 16 mg/kg p.o.", "result": "+5.1 g"},
      {"measurement": "Force inducing paw-withdrawal (g), Delta from baseline, Mean ± s.e.m.", "setting": "[1]; Day 14 at 2 h, 16 mg/kg p.o.", "result": "+5.4 ± 2.1 g"},
      {"measurement": "Force inducing paw-withdrawal (g), Mean ± s.e.m.", "setting": "[1]; Day 14 at 2 h, 16 mg/kg p.o.", "result": "25.2 ± 1.9", "unit": "g"},
      {"measurement": "Force inducing paw-withdrawal (g), Delta from baseline compared with Vehicle (p.o.), Δ", "setting": "[1]; Day 14 at 2 h, 24 mg/kg p.o.", "result": "+7.2 g"},
      {"measurement": "Force inducing paw-withdrawal (g), Delta from baseline, Mean ± s.e.m.", "setting": "[1]; Day 14 at 2 h, 24 mg/kg p.o.", "result": "+7.5 ± 3.1 g"},
      {"measurement": "Force inducing paw-withdrawal (g), Mean ± s.e.m.", "setting": "[1]; Day 14 at 2 h, 24 mg/kg p.o.", "result": "29.9 ± 2.9", "unit": "g"},
      {"measurement": "Force inducing paw-withdrawal (g), Delta from baseline compared with Vehicle (p.o.), Δ", "setting": "[1]; [3]", "result": "+7.8 g"},
      {"measurement": "Force inducing paw-withdrawal (g), Delta from baseline, Mean ± s.e.m.", "setting": "[1]; [3]", "result": "+10.6 ± 3.5 g"},
      {"measurement": "Force inducing paw-withdrawal (g), Mean ± s.e.m.", "setting": "[1]; [3]", "result": "32.1 ± 3.6", "unit": "g"},
      {"measurement": "Force inducing paw-withdrawal (g), Delta from baseline compared with Vehicle (p.o.), Δ", "setting": "[1]; [4]", "result": "+2.6 g"},
      {"measurement": "Force inducing paw-withdrawal (g), Delta from baseline, Mean ± s.e.m.", "setting": "[1]; [4]", "result": "+5.4 ± 2.1 g"},
      {"measurement": "Force inducing paw-withdrawal (g), Mean ± s.e.m.", "setting": "[1]; [4]", "result": "25.2 ± 2.0", "unit": "g"},
      {"measurement": "Force inducing paw-withdrawal (g), Delta from baseline compared with Vehicle (p.o.), Δ", "setting": "[1]; [5]", "result": "+8.7 g"},
      {"measurement": "Force inducing paw-withdrawal (g), Delta from baseline, Mean ± s.e.m.", "setting": "[1]; [5]", "result": "+11.5 ± 3.0 g"},
      {"measurement": "Force inducing paw-withdrawal (g), Mean ± s.e.m.", "setting": "[1]; [5]", "result": "33.8 ± 3.6", "unit": "g"},
      {"measurement": "EC50", "setting": "[2]; read-out: EC50 (effective concentration to give a 50% reduction in nociceptive events), concentration in brain", "result": 0.4, "unit": "µM"},
      {"measurement": "EC50", "setting": "[2]; read-out: EC50 (effective concentration to give a 50% reduction in nociceptive events), concentration in plasma", "result": 0.25, "unit": "µM"},
      {"measurement": "number of nociceptive events", "setting": "[2]; Study 1, vehicle, 1, 3 and 10 mg/kg", "result": "dose-responsive decrease"},
      {"measurement": "number of nociceptive events", "setting": "[2]; Study 2, 10 mg/kg", "result": "decrease"}
    ]}
  ]
}
